According to ChEMBL document CHEMBL1201862, “PubChem BioAssay data set” (2004):
Calls of active or inactive are those of the source.

Key:
[1] = target: Mu-type opioid receptor (Homo sapiens, UniProt P35372); test: SAR Analysis of Antagonists of the MOR Receptor using an Image-Based Assay - Set 3. [Related pubchem assays (depositor defined):AID1777, AID1785, AID1786, AID1966, AID2133, AID2136, AID2284, AID2285, AID2420]; format: functional
[2] = target: Delta-type opioid receptor (Homo sapiens, UniProt P41143); test: SAR Analysis of Antagonists of the DOR Receptor using an Image-Based Assay - Set 3. [Related pubchem assays (depositor defined):AID1777, AID1785]; format: functional;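 also: U2OS cells expressing DOR1 and beta-arrestin GFP stimulated with 100 nM SNC80; imaging of GFP-tagged beta-arrestin moving into spots after receptor activation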
Sequence of Delta-type opioid receptor (P41143 whole entry): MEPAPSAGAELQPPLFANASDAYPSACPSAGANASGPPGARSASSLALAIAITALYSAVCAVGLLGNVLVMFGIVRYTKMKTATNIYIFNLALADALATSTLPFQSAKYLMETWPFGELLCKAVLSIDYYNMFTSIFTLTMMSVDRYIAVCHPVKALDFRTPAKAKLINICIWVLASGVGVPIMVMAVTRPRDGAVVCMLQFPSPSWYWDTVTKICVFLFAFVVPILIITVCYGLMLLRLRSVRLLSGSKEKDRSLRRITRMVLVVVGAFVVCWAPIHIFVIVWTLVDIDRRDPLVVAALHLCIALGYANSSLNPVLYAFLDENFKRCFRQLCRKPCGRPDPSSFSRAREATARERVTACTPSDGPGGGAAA

[3] = target: T1, Kappa-type opioid receptor (Homo sapiens, UniProt P41145); test: SAR analysis of small molecule antagonists of the kappa opioid receptor via a luminescent beta-arrestin assay - Set 3. [Related pubchem assays (depositor defined):AID1777, AID1778, AID1785, AID1786, AID1966, AID2133, AID2136, AID2285, AID2495]; format: functional
T1 sequence (P41145 whole entry): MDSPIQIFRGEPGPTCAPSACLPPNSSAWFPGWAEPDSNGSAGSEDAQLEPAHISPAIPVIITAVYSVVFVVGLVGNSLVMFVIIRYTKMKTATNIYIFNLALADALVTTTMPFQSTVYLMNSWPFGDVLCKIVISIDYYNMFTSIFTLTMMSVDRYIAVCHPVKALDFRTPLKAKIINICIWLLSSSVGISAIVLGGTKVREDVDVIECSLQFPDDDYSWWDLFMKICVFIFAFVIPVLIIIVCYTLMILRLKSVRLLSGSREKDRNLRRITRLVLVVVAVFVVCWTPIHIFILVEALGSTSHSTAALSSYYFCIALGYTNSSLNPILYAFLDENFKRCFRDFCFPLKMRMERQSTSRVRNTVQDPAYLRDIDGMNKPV

[4] = target: T1, Kappa-type opioid receptor; test: SAR analysis of Antagonists of the Kappa Opioid Receptor (KOR) using an Image-Based Assay - Set 3. [Related pubchem assays (depositor defined):AID1777, AID1785]; format: functional
[5] = target: Galanin receptor type 2 (Homo sapiens, UniProt O43603); test: Dose Response cell-based high-throughput screening assay to identify antagonists of galanin receptor 2 (GALR2). [Related pubchem assays: 828, 866 ]; format: functional
Sequence of Galanin receptor type 2 (O43603 whole entry): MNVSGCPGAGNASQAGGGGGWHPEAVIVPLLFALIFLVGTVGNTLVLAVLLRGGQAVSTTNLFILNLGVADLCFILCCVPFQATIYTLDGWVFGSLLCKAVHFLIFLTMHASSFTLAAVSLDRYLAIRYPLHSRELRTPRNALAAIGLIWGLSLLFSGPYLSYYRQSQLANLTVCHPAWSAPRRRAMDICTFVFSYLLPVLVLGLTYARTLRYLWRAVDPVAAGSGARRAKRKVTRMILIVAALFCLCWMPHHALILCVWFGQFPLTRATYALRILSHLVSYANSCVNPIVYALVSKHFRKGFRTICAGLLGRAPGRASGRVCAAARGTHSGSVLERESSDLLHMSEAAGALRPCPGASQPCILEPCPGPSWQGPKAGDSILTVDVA

[6] = target: Ion channel NompC (Danio rerio, UniProt Q7T1G6); test: Dose response cell-based high-throughput screening assay for agonists of the transient receptor potential channel N1 (TRPN1). [Related pubchem assays (depositor defined):AID1424, AID1448]; format: functional
Sequence of Ion channel NompC (Q7T1G6 whole entry): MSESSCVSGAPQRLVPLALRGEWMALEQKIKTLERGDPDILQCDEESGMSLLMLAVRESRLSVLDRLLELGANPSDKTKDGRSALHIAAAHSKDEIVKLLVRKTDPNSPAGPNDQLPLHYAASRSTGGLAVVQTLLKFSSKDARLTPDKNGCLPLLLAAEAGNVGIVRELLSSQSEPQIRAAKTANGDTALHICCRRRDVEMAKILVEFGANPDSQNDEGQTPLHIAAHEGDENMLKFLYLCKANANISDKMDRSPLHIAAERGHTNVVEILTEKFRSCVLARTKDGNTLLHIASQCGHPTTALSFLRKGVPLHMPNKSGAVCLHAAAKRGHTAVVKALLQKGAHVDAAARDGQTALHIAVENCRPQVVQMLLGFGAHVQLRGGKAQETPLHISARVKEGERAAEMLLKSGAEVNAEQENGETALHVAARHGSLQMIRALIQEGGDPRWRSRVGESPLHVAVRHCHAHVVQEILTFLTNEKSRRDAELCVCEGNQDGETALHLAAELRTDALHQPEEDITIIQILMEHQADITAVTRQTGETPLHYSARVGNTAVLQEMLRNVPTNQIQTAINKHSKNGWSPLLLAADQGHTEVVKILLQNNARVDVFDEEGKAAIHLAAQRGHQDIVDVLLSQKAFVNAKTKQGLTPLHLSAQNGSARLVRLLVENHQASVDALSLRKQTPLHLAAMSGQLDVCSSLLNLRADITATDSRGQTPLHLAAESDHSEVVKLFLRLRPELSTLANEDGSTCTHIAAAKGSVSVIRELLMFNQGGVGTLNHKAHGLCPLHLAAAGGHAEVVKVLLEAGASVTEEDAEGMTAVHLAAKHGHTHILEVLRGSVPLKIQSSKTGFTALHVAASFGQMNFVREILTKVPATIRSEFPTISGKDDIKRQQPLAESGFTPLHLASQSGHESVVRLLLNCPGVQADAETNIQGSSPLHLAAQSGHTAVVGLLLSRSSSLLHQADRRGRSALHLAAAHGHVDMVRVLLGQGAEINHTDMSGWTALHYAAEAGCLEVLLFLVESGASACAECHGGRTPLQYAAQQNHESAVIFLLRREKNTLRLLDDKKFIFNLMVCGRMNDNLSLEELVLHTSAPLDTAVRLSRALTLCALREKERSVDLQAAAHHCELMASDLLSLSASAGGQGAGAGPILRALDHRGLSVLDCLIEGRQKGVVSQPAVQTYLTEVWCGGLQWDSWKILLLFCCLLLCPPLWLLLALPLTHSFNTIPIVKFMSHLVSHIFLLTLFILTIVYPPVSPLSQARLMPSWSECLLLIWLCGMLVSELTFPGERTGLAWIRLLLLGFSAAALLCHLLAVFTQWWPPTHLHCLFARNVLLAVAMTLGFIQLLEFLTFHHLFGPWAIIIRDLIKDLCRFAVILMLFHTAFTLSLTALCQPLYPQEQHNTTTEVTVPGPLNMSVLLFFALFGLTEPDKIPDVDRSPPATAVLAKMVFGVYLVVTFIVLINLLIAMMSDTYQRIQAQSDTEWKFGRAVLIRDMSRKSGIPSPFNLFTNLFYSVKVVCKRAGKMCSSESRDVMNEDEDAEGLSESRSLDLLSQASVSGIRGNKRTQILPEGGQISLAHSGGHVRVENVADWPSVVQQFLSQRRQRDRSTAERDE

[7] = target: T2, Mucolipin-3 (Homo sapiens, UniProt Q8TDD5); test: Fluorescence counterscreen assay for […] agonists: dose response cell-based high-throughput screening assay to identify agonists of the transient receptor potential channel ML3 (TRPML3). [Related pubchem assays: 1424, 1448 ]; format: functional
T2 sequence (Q8TDD5 whole entry): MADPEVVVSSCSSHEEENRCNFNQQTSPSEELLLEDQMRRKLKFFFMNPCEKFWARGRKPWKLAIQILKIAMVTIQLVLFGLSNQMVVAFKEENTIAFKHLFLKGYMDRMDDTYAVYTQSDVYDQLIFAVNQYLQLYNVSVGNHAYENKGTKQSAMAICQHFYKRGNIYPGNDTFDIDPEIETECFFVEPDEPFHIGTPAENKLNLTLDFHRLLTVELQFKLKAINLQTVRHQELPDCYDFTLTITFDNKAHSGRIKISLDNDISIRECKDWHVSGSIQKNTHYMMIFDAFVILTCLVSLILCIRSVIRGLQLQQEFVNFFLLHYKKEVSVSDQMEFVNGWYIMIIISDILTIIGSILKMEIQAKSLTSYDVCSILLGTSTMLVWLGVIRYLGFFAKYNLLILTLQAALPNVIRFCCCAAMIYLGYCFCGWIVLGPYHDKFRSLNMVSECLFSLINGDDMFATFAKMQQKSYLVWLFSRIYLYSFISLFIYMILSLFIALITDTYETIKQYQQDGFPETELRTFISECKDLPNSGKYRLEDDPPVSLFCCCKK

[8] = test system: INS1; test: beta cell apoptosis inhibitors, cytokine rescue, dose response, luminescence, retest (AID 449756); format: functional, cell-based; settings: Rattus norvegicus;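 also: cell death triggered by IL-1 beta plus TNF-alpha plus IFN-gamma mixture; protective hits raise ATP signal compared with cytokine alone wells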
[9] = target: T3, Galanin receptor type 3 (Homo sapiens, UniProt O60755); test: Fluorescence-based cell-based primary high throughput dose response assay to identify antagonists of the Galanin Receptor 3 (GalR3).; format: functional
T3 sequence (O60755 whole entry): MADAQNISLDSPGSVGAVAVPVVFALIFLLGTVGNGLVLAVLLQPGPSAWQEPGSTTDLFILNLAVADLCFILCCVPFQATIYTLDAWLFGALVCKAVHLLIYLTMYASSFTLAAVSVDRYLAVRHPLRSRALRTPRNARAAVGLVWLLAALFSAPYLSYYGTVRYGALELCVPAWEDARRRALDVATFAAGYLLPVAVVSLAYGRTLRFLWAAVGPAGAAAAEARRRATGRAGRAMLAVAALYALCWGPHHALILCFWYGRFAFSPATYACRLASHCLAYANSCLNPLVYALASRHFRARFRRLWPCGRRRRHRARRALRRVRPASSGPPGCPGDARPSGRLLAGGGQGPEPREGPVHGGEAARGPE

[10] = cells; format: functional, cell-based; settings: HEK-CNG
[11] = target: DNA damage-inducible transcript 3 protein (Mus musculus, UniProt P35639); format: functional, Cricetulus griseus
Sequence of DNA damage-inducible transcript 3 protein (P35639 whole entry): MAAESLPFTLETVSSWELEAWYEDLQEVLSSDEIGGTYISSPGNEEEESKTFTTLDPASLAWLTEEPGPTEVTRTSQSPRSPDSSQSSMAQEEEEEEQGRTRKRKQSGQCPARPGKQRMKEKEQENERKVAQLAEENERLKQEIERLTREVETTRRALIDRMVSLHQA

[12] = target: T4, Microphthalmia-associated transcription factor (Homo sapiens, UniProt O75030); test: TRPM1 promoter luciferase signal decrease, dose response, MITF inhibitor project, cell-based, SK-MEL-5, cherry-picked, set 3 (AID 493073); format: functional
T4 sequence (O75030 whole entry): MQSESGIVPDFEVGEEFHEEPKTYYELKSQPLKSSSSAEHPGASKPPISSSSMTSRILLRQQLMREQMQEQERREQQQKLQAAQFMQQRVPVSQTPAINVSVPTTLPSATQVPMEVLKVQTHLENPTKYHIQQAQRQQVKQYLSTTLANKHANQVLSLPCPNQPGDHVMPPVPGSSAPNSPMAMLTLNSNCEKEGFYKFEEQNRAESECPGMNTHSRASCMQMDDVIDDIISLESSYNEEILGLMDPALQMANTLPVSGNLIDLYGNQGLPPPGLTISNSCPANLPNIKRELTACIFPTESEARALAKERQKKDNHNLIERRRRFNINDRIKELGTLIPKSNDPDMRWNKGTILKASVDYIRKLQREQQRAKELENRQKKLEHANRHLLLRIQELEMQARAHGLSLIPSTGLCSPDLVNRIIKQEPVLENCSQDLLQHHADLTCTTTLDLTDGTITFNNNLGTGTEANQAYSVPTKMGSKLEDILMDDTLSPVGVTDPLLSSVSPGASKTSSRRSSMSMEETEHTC

[13] = test system: CHO; test: cytotoxicity in TLR9-MyD88 CHO cells, dose response, cytotoxicity control for TLR9-MyD88 binding inhibitor project, cell-based, luminescence (AID 588339); format: functional, hamster; settings: Cricetulus griseus;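 also: CHO cells stably coexpressing TLR9 and MyD88 fusions from primary screen; compound exposure lasted 48 hours before viability readout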
[14] = target: T5, Beta Lactamase (Pseudomonas aeruginosa, UniProt Q932Y6); test: beta-lactamase reporter inhibitor potency, dose response, artefact control for TLR9-MyD88 binding inhibitor project, BLA reporter cells, FRET fluorescence (AID 588341); format: cell-based;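 also: cell based assay in CHO-K1 cells stably expressing beta-lactamase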
T5 sequence (Q932Y6 whole entry): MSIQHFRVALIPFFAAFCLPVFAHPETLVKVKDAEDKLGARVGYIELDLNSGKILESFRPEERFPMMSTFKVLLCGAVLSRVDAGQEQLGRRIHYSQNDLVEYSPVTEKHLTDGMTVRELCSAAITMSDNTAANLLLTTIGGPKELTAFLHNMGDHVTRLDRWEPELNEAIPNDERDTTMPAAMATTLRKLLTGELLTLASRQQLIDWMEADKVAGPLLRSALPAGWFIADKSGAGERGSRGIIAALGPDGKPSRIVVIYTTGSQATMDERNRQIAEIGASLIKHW

[15] = Shn3 3'UTR reporter inhibitors, dose response, cell-based, Clone20 osteoblasts, firefly luciferase, cherry-picked (AID 624132); format: functional;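 also: firefly luciferase luminescence from reporter carrying the Shn3 3'UTR in osteoblasts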
[16] = HepG2 cell cytotoxicity, dose response, cytotoxicity control for Shn3 inhibitor project, CellTiter-Glo, cherry-picked (AID 624134); format: functional, cell-based
[17] = control 3'UTR Renilla luciferase suppression, dose response, counter-screen for Shn3 inhibitor project, cell-based, Clone20-Shn3RL, cherry-picked (AID 624133); format: functional
[18] = Fluorescence-based cell-based high throughput dose response assay for inhibitors of the interaction of nucleotide-binding oligomerization domain containing 2 (NOD2) and the receptor-interacting serine-threonine kinase 2 (RIPK2).; format: functional; settings: Homo sapiens
[19] = target: T5, Beta Lactamase; test: beta-lactamase reporter inhibitor potency, dose response, artefact control for NOD2-RIPK2 interaction inhibitor project, BLA reporter cells, FRET fluorescence (AID 651552); format: functional, cell-based

Sequence of Mu-type opioid receptor (P35372 whole entry): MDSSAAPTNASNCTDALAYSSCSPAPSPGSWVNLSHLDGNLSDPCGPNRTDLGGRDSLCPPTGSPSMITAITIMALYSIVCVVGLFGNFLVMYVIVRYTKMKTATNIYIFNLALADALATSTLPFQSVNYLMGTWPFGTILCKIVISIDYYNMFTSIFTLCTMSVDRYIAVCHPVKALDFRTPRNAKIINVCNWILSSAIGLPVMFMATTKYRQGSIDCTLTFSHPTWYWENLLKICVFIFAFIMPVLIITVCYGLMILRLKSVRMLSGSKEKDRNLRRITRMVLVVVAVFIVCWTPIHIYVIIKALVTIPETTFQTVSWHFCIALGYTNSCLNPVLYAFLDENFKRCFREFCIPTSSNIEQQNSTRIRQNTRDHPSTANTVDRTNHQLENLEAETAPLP

Structure (SMILES): CCc1ccc(S(=O)(=O)NCc2ccc(C(=O)NCCN(Cc3ccc(C)cc3)C(C)C)cc2)cc1
- IC50 [1]: > 32 µM (inactive)
- IC50 [2]: > 32 µM (inactive)
- IC50 [3]: 742 nM (active)
- IC50 [4]: 173 nM (active)

Structure (SMILES): C1=C(CCNc2[nH]cnc3c4ccccc4nc2-3)CCCC1
- IC50 [5]: > 42 µM (not active)
- EC50 [6]: > 29.9 µM (inactive)
- EC50 [7]: > 29.9 µM (not active)
- AC50 [8]: 219 nM (active)
- IC50 [9]: 0.383 µM (active)
- EC50 [10]: > 29.9 µM (inactive)

Structure (SMILES): CS(=O)(=O)c1nc(-c2ccc(F)cc2)cc(C(F)(F)F)n1
- Absolute IC50 (CHOP) [11]: 10 µM
- AC50 [12]: 7.2 µM (active)
- IC50 [13]: 3.27 µM (active)
- IC50 [14]: 27.4 µM (inactive)
- AC50 [15]: 2.72 µM (active)
- AC50 [16]: 24.5 µM (active)
- AC50 [17]: 7.39 µM (active)
- IC50 [18]: 2.79 µM (active)
- IC50 [19]: 17.7 µM (inactive)
- IC50 [9]: > 29.9 µM (inactive)
- EC50 [10]: > 29.9 µM (inactive)
